In patent US9790233B2, “Compositions and methods of modulating 15-PGDH activity” (CASE WESTERN RESERVE UNIVERSITY, priority 2012, dated 2017):
Like-named read-outs stand apart in the source and are kept apart here.

Legend:
Type in all cases: cell-based
[1] = test system: 15-PGDH luciferase fusion construct in V9m reporter cell line; assay: 15-PGDH-luciferase fusion gene reporter induction, V9m cells; conditions: read-out: V9M reporter activity ([…]), […]
[2] = test system: 15-PGDH luciferase fusion construct in LS174T reporter cell line; assay: 15-PGDH-luciferase fusion gene reporter induction, LS174T cells; conditions: Homo sapiens
[3] = test system: 15-PGDH luciferase fusion construct in Vaco503 reporter cell line; assay: 15-PGDH-luciferase fusion gene reporter induction, V503 cells; conditions: read-out: V503 reporter activity ([…]), […]
[4] = % increased luciferase activity over basal level, 100 = doubling, read-out: V9M reporter activity (2.5 uM)
[5] = % increased luciferase activity over basal level, 100 = doubling, read-out: V9M reporter activity (7.5 uM)
[6] = read-out: LS174T reporter activity ([…]), […], % increased luciferase activity over basal level, read-out: LS174T reporter activity (2.5 uM)
[7] = read-out: LS174T reporter activity ([…]), […], % increased luciferase activity over basal level, read-out: LS174T reporter activity (7.5 uM)
[8] = % increased luciferase activity over basal level, read-out: V503 reporter activity (2.5 uM)
[9] = % increased luciferase activity over basal level, read-out: V503 reporter activity (7.5 uM)
[10] = % induction of luciferase activity over basal level, Table 17, read-out: V9M reporter activity (2.5 μM)
[11] = % induction over basal level, Table 17, read-out: V9M reporter activity (7.5 μM)
[12] = read-out: LS174T reporter activity ([…]), […], % induction over basal level, Table 17, read-out: LS174T reporter activity (2.5 μM)
[13] = read-out: lS174T reporter activity ([…]), […], % induction over basal level, Table 17, read-out: lS174T reporter activity (7.5 μM)
[14] = % induction over basal level, Table 17, read-out: V503 reporter activity (2.5 μM)
[15] = % induction over basal level, Table 17, read-out: V503 reporter activity (7.5 μM)

| Structure (SMILES) | activation at […] [1, 4] | activation at […] [1, 5] | activation at […] [2, 6] | activation at […] [2, 7] | activation at […] [3, 8] | activation at […] [3, 9] | activation at […] [1, 10] | activation at […] [1, 11] | activation at […] [2, 12] | activation at […] [2, 13] | activation at […] [3, 14] | activation at […] [3, 15] |
| --- | --- | --- | --- | --- | --- | --- | --- | --- | --- | --- | --- | --- |
| CCOC(=O)c1sc2nc(-c3cccs3)cc(-c3ccc(F)cc3)c2c1N [compound 413423] | -5.65% | -8.76% | 3.41% | 3.91% | 7.89% | 3.13% |  |  |  |  |  |  |
| O=C(CN(c1ccc(F)cc1)S(=O)(=O)c1ccccc1)Nc1cccnc1 [compound 414177] |  |  |  |  |  |  | 10.6% | 7.72% | 9.51% | -0.62% | -2.8% | -5.73% |
| O=C(CN(c1ccccc1)S(=O)(=O)c1ccccc1)Nc1ccccn1 [compound 414183] |  |  |  |  |  |  | -9.15% | -3.89% | 5.35% | -4.77% | 11.5% | 37.2% |
| COc1ccc(OC)c(NC(=O)CN(c2ccc([N+](=O)[O-])cc2)S(=O)(=O)c2ccccc2)c1 [compound 414195] |  |  |  |  |  |  | -13.9% | -16.8% | -1.15% | 2.34% | 13.1% | 19.5% |
| COc1ccc(S(=O)(=O)N(CC(=O)Nc2ccccc2)c2ccccc2)cc1 [compound 474738] |  |  |  |  |  |  | -7.27% | 3.48% | -0.36% | 3.5% | 17% | 24.6% |
| COc1ccc(NC(=O)CN(c2ccccc2)S(=O)(=O)c2ccccc2)cc1 [compound 474759] |  |  |  |  |  |  | 2.58% | 6.4% | 5.54% | -0.03% | -5.04% | -12.7% |
| COc1ccc(OC)c(N(CC(=O)Nc2ccccc2F)S(=O)(=O)c2ccccc2)c1 [compound 503270] |  |  |  |  |  |  | -4.47% | 24.1% | 12.3% | 32.8% | 29.9% | 42.1% |
| COc1ccccc1N(CC(=O)Nc1ccc(F)c(Cl)c1)S(=O)(=O)c1ccccc1 [compound 537833] |  |  |  |  |  |  | -7.54% | -7.44% | 4.94% | 9.04% | 42.3% | 73.2% |
| COc1ccc(N(CC(=O)Nc2ccc(C(C)=O)cc2)S(=O)(=O)c2ccccc2)cc1Cl [compound 539430] |  |  |  |  |  |  | 21.3% | 21.4% | 5.62% | 10.4% | 38.8% | 103% |
| O=C(CN(c1ccccn1)S(=O)(=O)c1ccccc1)Nc1ccccc1 [compound 543512] |  |  |  |  |  |  | 36.8% | 79.6% | 18.1% | 8.33% | -4.56% | -4.26% |
| COc1ccc(S(=O)(=O)N(CC(=O)Nc2ccc(Cl)cc2Cl)c2ccccc2)cc1 [compound 543716] |  |  |  |  |  |  | 4.2% | -0.14% | 3.26% | -2.08% | -8.04% | -8.6% |
| COc1ccc(N(CC(=O)Nc2ccc(C(=O)O)cc2)S(=O)(=O)c2ccccc2)cc1 [compound 742790] |  |  |  |  |  |  | 13.8% | 23.1% | 12.8% | 17.3% | 5.94% | 34.4% |
| CCOc1ccccc1N(CC(=O)Nc1ccccc1Br)S(=O)(=O)c1ccc(C)cc1 [compound 771074] |  |  |  |  |  |  | 13.5% | 24.7% | 20.7% | 20.6% | 23% | 39.5% |
| COc1ccc(OC)c(N(CC(=O)Nc2ccccc2Br)S(=O)(=O)c2ccc(C)cc2)c1 [compound 771132] |  |  |  |  |  |  | -2.26% | 12.2% | 14% | 13.5% | 24.8% | 40.8% |
| COc1ccc(N(CC(=O)Nc2ccccc2Br)S(=O)(=O)c2ccc(C)cc2)c(OC)c1 [compound 771138] |  |  |  |  |  |  | -4.36% | 6.75% | 13.6% | 9.23% | 34.4% | 72.6% |
| COc1ccc(OC)c(N(CC(=O)Nc2ccc(I)cc2)S(=O)(=O)c2ccc(C)cc2)c1 [compound 771146] |  |  |  |  |  |  | -38.1% | -78.3% | -31.6% | -68.8% | -49.7% | -86.6% |
| COc1ccc(N(CC(=O)Nc2ccc(Br)cc2)S(=O)(=O)c2ccccc2)c(OC)c1 [compound 785161] |  |  |  |  |  |  | 0.54% | 3.48% | 10.7% | -41.9% | 56.7% | -52.5% |
| COc1ccc(OC)c(N(CC(=O)Nc2cccc(Cl)c2)S(=O)(=O)c2ccc(OC)c(OC)c2)c1 [compound 785254] |  |  |  |  |  |  | -16.1% | -8.48% | 2.93% | 4.29% | 16.1% | 28.3% |
| COc1ccc(N(CC(=O)Nc2ccc(CC#N)cc2)S(=O)(=O)c2ccccc2)cc1Cl [compound 919576] |  |  |  |  |  |  | 49.9% | 63% | 17.5% | 30.7% | 49.2% | 73.7% |
| COc1ccc(NC(=O)CN(c2ccccc2OC)S(C)(=O)=O)cc1 [compound 920847] |  |  |  |  |  |  | 9.26% | 17.7% | 6.18% | 2.97% | -4.47% | -10.6% |
| COc1ccc(OC)c(N(CC(=O)Nc2ccccc2Br)S(=O)(=O)c2ccc(OC)c(OC)c2)c1 [compound 924740] |  |  |  |  |  |  | -0.54% | 6.33% | 7.69% | 16.7% | 20.2% | 52.2% |
| COc1ccc(OC)c(N(CC(=O)Nc2cccc(Br)c2)S(=O)(=O)c2ccc(OC)c(OC)c2)c1 [compound 939417] |  |  |  |  |  |  | -11.2% | -9.81% | 6.5% | -1.64% | 12.6% | 16.2% |
| COc1ccc(OC)c(N(CC(=O)NC(C)c2ccccc2)S(=O)(=O)c2ccc(OC)c(OC)c2)c1 (stereo not drawn) [compound 967134] |  |  |  |  |  |  | -10.1% | -2.64% | 5.11% | 5.73% | 18.4% | 36.1% |
| NC(=O)c1sc2nc(-c3cccs3)cc(-c3ccc(F)cc3)c2c1N [compound 980653] | 8.83% | 12% | 5.76% | 11% | -10.5% | -15.2% |  |  |  |  |  |  |
| COc1ccc(OC)c(NC(=O)CN(c2ccccc2)S(=O)(=O)c2cc(Br)ccc2OC)c1 [compound 1002654] |  |  |  |  |  |  | -2.58% | -3.96% | 5.51% | -1.24% | 0.78% | 19.2% |
| COc1ccc(OC)c(N(CC(=O)Nc2ccc(I)cc2C)S(=O)(=O)c2ccccc2)c1 [compound 1003012] |  |  |  |  |  |  | -10.4% | -0.9% | 5.54% | 19.8% | 34.4% | 58.5% |
| CCOC(=O)c1ccc(NC(=O)CN(c2cc(OC)ccc2OC)S(=O)(=O)c2ccc(OC)c(OC)c2)cc1 [compound 1003132] |  |  |  |  |  |  | -5.6% | -0.21% | 5.16% | 1.73% | 15.4% | 16.1% |
| COc1ccc(OC)c(N(CC(=O)Nc2ccccc2C(=O)NC(C)C)S(=O)(=O)c2ccc(OC)c(OC)c2)c1 [compound 1003378] |  |  |  |  |  |  | -4.42% | -3.27% | 7.3% | 1.27% | 7.23% | 16.7% |
| CCc1cccc(CC)c1NC(=O)CN(c1cc(OC)ccc1OC)S(=O)(=O)c1ccc(OC)c(OC)c1 [compound 1003429] |  |  |  |  |  |  | 12.6% | 4.17% | 8.82% | -6.88% | -7.46% | -19.2% |
| COc1ccc(OC)c(N(CC(=O)Nc2ccc(Br)cc2F)S(=O)(=O)c2ccc(C)cc2)c1 [compound 1004292] |  |  |  |  |  |  | 0.88% | -0.21% | 20.3% | 0.14% | 23.5% | 21.2% |
